Source: patent publication US20220143026A1, “TRIPLE COMBINATION TO TREAT B-CELL MALIGNANCIES” (TG Therapeutics, Inc., priority 2020, published 2022)
Like-named read-outs stand apart in the source and are kept apart here. Marks after values point to notes of the source that are not given here.

Experiments:
[1] = ibrutinib n=263, acalabrutinib n=266; cited from earlier work
BTK [2] = molecular target: T1, BTK (Mus musculus, UniProt P35991); settings: mice, single dose of TG-1701 at 12.5 mg/kg; cited from earlier work
T1 construct: from tissue; host or cells: mouse spleen
T1 sequence (P35991 whole entry): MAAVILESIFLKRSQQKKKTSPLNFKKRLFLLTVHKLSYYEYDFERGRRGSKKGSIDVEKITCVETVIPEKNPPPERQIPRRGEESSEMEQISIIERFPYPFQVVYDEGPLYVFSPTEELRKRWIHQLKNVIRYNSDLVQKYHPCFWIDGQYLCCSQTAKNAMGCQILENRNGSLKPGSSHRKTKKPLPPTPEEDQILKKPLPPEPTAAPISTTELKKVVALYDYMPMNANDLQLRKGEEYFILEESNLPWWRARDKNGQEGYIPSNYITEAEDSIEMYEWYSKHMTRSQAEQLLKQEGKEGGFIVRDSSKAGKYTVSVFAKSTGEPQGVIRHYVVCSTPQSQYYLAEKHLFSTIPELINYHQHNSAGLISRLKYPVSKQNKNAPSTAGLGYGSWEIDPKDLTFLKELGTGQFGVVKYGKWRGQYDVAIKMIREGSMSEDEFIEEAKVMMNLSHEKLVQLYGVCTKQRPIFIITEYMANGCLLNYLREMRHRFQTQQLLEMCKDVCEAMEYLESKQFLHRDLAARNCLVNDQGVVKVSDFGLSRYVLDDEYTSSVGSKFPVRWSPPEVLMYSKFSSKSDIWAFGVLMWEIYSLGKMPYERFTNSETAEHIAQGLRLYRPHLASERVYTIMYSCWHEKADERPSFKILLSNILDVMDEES

[3] = system: mantle cell lymphoma (MCL) Mino cell line; settings: read-out: IC50, inhibition of growth; cited from earlier work
BTK [4] = molecular target: T2, BTK (Homo sapiens, UniProt Q06187); test: Phase 1/1b clinical trial, pharmacodynamics (BTK occupancy); type: in vivo; set-up: endogenous in cells
T2 sequence (Q06187 whole entry): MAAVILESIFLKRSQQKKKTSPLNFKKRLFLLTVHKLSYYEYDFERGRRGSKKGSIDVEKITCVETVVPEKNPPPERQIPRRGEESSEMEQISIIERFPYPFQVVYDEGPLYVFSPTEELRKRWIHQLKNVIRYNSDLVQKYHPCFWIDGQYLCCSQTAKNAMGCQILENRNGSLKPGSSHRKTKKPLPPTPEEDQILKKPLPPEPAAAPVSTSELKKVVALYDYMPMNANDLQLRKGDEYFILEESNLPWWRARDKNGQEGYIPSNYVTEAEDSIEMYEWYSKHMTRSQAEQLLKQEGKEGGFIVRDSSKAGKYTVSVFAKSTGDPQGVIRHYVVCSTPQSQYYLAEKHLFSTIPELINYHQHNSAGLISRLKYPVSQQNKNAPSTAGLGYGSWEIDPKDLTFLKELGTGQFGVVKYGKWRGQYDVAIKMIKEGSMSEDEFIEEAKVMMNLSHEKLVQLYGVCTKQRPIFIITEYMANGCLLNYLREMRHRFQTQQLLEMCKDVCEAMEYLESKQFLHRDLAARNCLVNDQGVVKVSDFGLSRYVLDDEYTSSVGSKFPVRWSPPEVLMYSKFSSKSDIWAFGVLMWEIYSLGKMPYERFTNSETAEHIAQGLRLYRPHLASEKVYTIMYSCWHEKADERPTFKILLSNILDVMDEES

[5] = Phase 1/1b clinical trial, pharmacokinetics; type: in vivo, human; settings: patients
[6] = system: follicular lymphoma (FL) DOHH-2 cell line; settings: read-out: IC50, inhibition of growth; cited from earlier work
[7] = system: SU-DHL-6 (GCB-DLBCL), Mino (MCL), and OCI-Ly10 (ABC-DLBCL) xenograft models; settings: SU-DHL-6, Mino, OCI-Ly10 xenografts; cited from earlier work
EGFR = EGFR (Homo sapiens, UniProt P00533); settings: cited from earlier work
Chain of EGFR (P00533 25-1210, species assumed): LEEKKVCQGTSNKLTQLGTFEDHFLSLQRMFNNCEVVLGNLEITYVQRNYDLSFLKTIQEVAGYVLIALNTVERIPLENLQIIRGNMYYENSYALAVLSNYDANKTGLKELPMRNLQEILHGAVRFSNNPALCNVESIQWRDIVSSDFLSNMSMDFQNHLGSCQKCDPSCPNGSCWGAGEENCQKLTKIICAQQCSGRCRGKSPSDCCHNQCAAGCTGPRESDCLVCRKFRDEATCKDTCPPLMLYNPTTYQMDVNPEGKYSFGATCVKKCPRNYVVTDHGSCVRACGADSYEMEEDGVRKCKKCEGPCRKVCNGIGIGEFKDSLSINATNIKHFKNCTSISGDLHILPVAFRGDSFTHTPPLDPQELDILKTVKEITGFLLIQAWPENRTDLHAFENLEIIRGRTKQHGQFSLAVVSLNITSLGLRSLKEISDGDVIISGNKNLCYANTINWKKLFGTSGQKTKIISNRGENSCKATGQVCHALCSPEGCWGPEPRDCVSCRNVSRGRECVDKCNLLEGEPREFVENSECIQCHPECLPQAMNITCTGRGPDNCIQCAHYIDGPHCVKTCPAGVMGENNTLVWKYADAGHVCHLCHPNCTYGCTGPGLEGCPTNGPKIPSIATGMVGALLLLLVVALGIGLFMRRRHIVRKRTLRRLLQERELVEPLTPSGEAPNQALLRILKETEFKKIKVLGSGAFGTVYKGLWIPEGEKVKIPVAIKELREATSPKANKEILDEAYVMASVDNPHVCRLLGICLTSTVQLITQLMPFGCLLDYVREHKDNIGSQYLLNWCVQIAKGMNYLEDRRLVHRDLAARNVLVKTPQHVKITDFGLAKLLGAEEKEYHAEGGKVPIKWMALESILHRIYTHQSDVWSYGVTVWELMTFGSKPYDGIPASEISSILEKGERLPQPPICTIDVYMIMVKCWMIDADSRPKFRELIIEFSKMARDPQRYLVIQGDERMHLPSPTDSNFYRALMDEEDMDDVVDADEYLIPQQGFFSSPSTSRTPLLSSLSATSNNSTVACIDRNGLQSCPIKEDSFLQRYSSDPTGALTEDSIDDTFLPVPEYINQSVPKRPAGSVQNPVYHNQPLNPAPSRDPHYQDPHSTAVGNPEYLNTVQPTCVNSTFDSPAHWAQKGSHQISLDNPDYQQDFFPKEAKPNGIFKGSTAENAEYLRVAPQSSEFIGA

[8] = system: IgM-activated BCR pathway; settings: DOHH-2 cells; cited from earlier work
[9] = human, in vivo
BTK [10] = molecular target: T2, BTK; settings: read-out: kinase inhibition IC50 against BTK; cited from earlier work
JEKO cells = settings: cited from earlier work
[11] = comparison of atrial fibrillation adverse events between BTK inhibitors; type: in vivo, human; settings: N=106
DLBCL SU-DHL-6 cell line = settings: read-out: IC50, inhibition of growth; cited from earlier work
B-cell malignancies = test: Phase 1/1b clinical trial, efficacy (response)
Description: All patients were treated until disease progression, unacceptable toxicity, or investigator/patient decision to withdraw.
All patients were treated until disease progression, unacceptable toxicity, or investigator/patient decision to withdraw study consent.
Evaluable patients had at least one response assessment.

[12] = Phase 1/1b clinical trial, safety; settings: for treatment discontinuation: Death: CLL, N = 20, death due to SARS-CoV-2 infection
B-NHL cell lines [13] = settings: cited from earlier work
B-NHL cell lines [14] = settings: cited from earlier work; remark: listed apart in the source
[15] = system: relapsed and refractory hematologic malignancies; settings: cited from earlier work
[16] = in vivo; cited from earlier work
CD20 antigen = molecular target: T3, CD20 antigen (Homo sapiens, UniProt P11836); settings: cited from earlier work
T3 sequence (P11836 1-297): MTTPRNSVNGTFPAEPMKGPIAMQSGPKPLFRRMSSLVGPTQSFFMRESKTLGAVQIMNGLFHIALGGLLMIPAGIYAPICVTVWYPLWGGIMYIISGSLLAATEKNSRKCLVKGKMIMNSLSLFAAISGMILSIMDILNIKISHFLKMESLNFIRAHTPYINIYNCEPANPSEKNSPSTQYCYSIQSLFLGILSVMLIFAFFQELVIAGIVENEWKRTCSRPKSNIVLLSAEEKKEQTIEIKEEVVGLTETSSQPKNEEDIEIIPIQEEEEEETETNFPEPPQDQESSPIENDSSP

[17] = monotherapy 200 mg, CLL cohort, N = 20
[18] = monotherapy 200 mg, MCL cohort, N = 18
[19] = monotherapy 200 mg, WM cohort, N = 19
[20] = monotherapy dose escalation 100-400 mg, N = 23
[21] = patients with relapsed or refractory hematologic malignancies

For `CC#CC(=O)N1CCC[C@H]1c1nc(-c2ccc(C(=O)Nc3ccccn3)cc2)c2c(N)nccn12` [acalabrutinib], the “% incidence of any grade Afib” value [1] is given as 9% and the “% incidence of atrial fibrillation (Afib), Grade 3 or greater” value [1] is given as 4.5%.

In the case of `CC#CC(=O)N1CC[C@@H](n2cc(-c3ccc(Oc4c(F)cccc4F)cc3)c3c(N)n[nH]c(=O)c32)C1` [TG-1701, (R)-4-amino-1-(1-(but-2-ynoyl)pyrrolidin-3-yl)-3-(4-(2,6-difluorophenoxy)phenyl)-1,6-dihydro-7H-pyrrolo[2,3-d]pyridazin-7-one], the “BTK occupancy in the spleen” value (BTK [2]) is given as “completely occupied”, the IC50 [3] is given as 449 nM and the BTK occupancy (BTK [4]; 100 mg QD) is given as “full BTK occupancy”. For the same molecule, the “saturation of the BTK” value (BTK [4]; all dose levels studied) was roughly 100%, the receptor occupancy at 100 mg (BTK [4]; human, 100 mg QD) was no less than 99% and the “kinetics, dose proportionality of exposure” value [5] was “Linear kinetics”. For the same molecule, the IC50 [6] was 369 nM, the anti-tumor efficacy [7] was “potent anti-tumor activity equivalent to or greater than ibrutinib” and the IC50 (EGFR) was 270 nM. For the same molecule, the “IgM-activated BCR pathway: phosphorylation of BTK, PLCy2, and ERK1/2” value [8] was “inhibited”, the “G≥3 neutropenia” value [9] was 8% and the “changes between pre- and on-treatment diastolic blood pressure nor QTc” value [9] was “No significant changes”. The “patients with dose reduction due to treatment-related adverse events” value [9] was “Four”, the “treatment discontinuations due to adverse events” value [9] was “no treatment discontinuations due to adverse events” and the ventricular tachyarrhythmia [9] was “No cases”. For the same molecule, the IC50 (BTK [10]) was 3 nM, the CXCL12-dependent migration (JEKO cells) was “blocked” and the “IgM-dependent CD69 expression” value (JEKO cells) was “blocked”. For the same molecule, the “adhesion of JEKO cells to VCAM-1” value (JEKO cells) was “blocked”, the “% incidence of any grade Afib” value [11] was 3.8% and the “% incidence of atrial fibrillation (Afib), Grade 3 or greater” value [11] was 1.9%. The IC50 (DLBCL SU-DHL-6 cell line) was 313 nM, the “hematologic variables in patients with anemia and thrombocytopenia at baseline” value (B-cell malignancies; CLL 200-mg and 300-mg cohorts) was “sustained improvement” and the “lymphocytosis resolution to normal or less than 50% of baseline” value (B-cell malignancies; CLL monotherapy patients) was 57.1%. The ORR (B-cell malignancies; CLL patients evaluable for response, Example 2) was 95.6%, the “median duration of response” value (B-cell malignancies; CLL patients, Example 2) was “has not been reached” and the “treatment discontinuation: Progression by iwCLL criteria” value (B-cell malignancies; CLL, dose-escalation 100-400 mg, N = 6) was 1 N(%). For the same molecule, the “complete responses (CR) confirmed” value (B-cell malignancies; TG-1701 monotherapy) was “No complete responses”, the ORR (B-cell malignancies; [17]) was 95% and the Stable disease (B-cell malignancies; [17]) was 1 (5) N (%). For the same molecule, the Partial response (B-cell malignancies; monotherapy 200 mg, CLL cohort, N = 20, includes PR and PR-L) was 19 (95)^b N (%), the ORR (B-cell malignancies; [18]) was 50% and the Partial response (B-cell malignancies; [18]) was 9 (50) N (%). For the same molecule, the Progressive disease (B-cell malignancies; [18]) was 3 (17) N (%), the Stable disease (B-cell malignancies; [18]) was 6 (33) N (%) and the Minor response (B-cell malignancies; [19]) was 6 (32) N (%). The ORR (B-cell malignancies; [19]) was 95%, the Partial response (B-cell malignancies; [19]) was 12 (63) N (%) and the Progressive disease (B-cell malignancies; [19]) was 1 (5) N (%). For the same molecule, the Minor response (B-cell malignancies; [20]) was 1 (4) N (%), the ORR (B-cell malignancies; [20]) was 52% and the Partial response (B-cell malignancies; [20]) was 11 (48) N (%). For the same molecule, the Progressive disease (B-cell malignancies; [20]) was 3 (13) N (%), the Stable disease (B-cell malignancies; [20]) was 8 (35) N (%) and the “treatment discontinuation: Death” value ([12]; dose-expansion 200 mg) was 1^‡ N(%). For the same molecule, the “treatment discontinuation: Death” value ([12]; dose-expansion 300 mg) was 2^‡ N(%), the “FcγR-driven ADCC and ADCP activity of anti-CD20 antibodies (e.g., ublituximab)” value (B-NHL cell lines [13]) was “does not impair” and the “ADCC activity of ublituximab in the presence of the BTK inhibitor” value (B-NHL cell lines [13]; compared to monotherapy ADCC activity of ublituximab, across cell lines) was “not significantly different”. The “ADCP activity of rituximab in the presence of the BTK inhibitor” value (B-NHL cell lines [14]) was “conserved to a greater extent” and the “ADCP activity of ublituximab in combination with the BTK inhibitor” value (B-NHL cell lines [14]; increasing concentrations) was “conserved at all dose levels tested”.

In the case of `CC(C)Oc1ccc(-c2nn([C@@H](C)c3oc4ccc(F)cc4c(=O)c3-c3cccc(F)c3)c3ncnc(N)c23)cc1F` [umbralisib, (S)-2-(1-(4-amino-3-(3-fluoro-4-isopropoxyphenyl)-1H-pyrazolo[3,4-d]pyrimidin-1-yl)ethyl)-6-fluoro-3-(3-fluorophenyl)-4H-chromen-4-one], the “doses with signs of clinical activity” value ([15]; in vivo) is listed as no less than 800 mg each day, the hepatic toxicity [15, 21] is listed as “no reported hepatic toxicity” and the tolerability [15, 21] is listed as “well-tolerated”. For the same molecule, the “patients with dose reduction of umbralisib due to G3-4 ALT elevation” value ([12]; combination arm, dose escalation) was 3 patients.

In the case of `CC[C@H](Nc1ncnc2[nH]cnc12)c1nc2cccc(F)c2c(=O)n1-c1ccccc1` [Idelalisib], the “immune mediated colitis, grade 3” value [16] is given as no less than 5%, the “pneumonitis, grade 3” value [16] is given as no less than 4% and the “transaminitis, grade 3” value [16] is given as no less than 8%.

B1: Ublituximab: chimeric monoclonal antibody targeting a unique epitope on the CD20 antigen, glycoengineered for enhanced affinity for Fcγ RIIIa receptors (antibody, V domains shown)
VH: QAYLQQSGAELVRPGASVKMSCKASGYTFTSYNMHWVKQTPRQGLEWIGGIYPGNGDTSYNQKFKGKATLTVGKSSSTAYMQLSSLTSEDSAVYFCARYDYNYAMDYWGQGTSVTVSS
VL: QIVLSQSPAILSASPGEKVTMTCRASSSVSYMHWYQQKPGSSPKPWIYATSNLASGVPARFSGSGSGTSYSFTISRVEAEDAATYYCQQWTFNPPTFGGGTRLEIK
modifications: Ublituximab Variable heavy chain; Ublituximab Variable light chain
For B1, the “ADCC activity compared with rituximab and ofatumab” value (CD20 antigen) is listed as “greater”.
